Measured values published in patent publication US20160137630A1, “INDUCTION OF GATA2 BY HDAC1 AND HDAC2 INHIBITORS” (ACETYLON PHARMACEUTICALS, INC., priority 2014, published 2016).
“Also recorded” adds a separate entry of the source. Read-outs that look alike come from different tables or passages of the source.

Columns and labels:
sickle donor cells = assay: HbG induction in sickle donor cells; type: cell-based; settings: peripheral blood mononuclear cells from four different donors; FIG. 11B
Description: Then, the cells from each donor were differentiated by exposure to either vehicle (control) or Compound 001. RNA samples of HbG were taken from each group of donor cells at days 0, 3, and 5.

[1] = test system: CD34+ bone marrow cells undergoing erythroid differentiation; assay: Affymetrix GeneChip mRNA expression profiling; type: cell-based, human
Description: The knockdown results were derived from an independent analysis of publically available raw data (Bradner et al., “Chemical genetic strategy identifies histone deacetylase 1 (HDAC1) and HDAC2 as therapeutic targets in sickle cell disease”, PNAS, vol. 107(28), pp. 12617-22 (2010)) and detection of mRNA by Affymetrix GeneChip.
Among the genes differentially regulated by both pharmacological inhibition and genetic ablation of HDAC1/2 were Bcl11a and Sox6, known HbG repressors, and Gata2, a potential HbG activator.
Then, the cells were differentiated by exposure to either vehicle (control) or Compound 001. FACS was performed at day 5. […] GlyA.
The mechanism through which HDAC1/2 inhibition induces HbG by performing gene expression profiling was interrogated. Because HDAC inhibition prevented cells from fully upregulating GlyA (FIG. 19E), RNA was isolated at day 5 of differentiation, a time point prior to the observed differentiation block.
Next, using the GeneChip data, a candidate gene approach was taken to determine which HbG modulators were changing as a result of both chemical and genetic HDAC1/2 inhibition (FIG. 1A). […] In contrast, other HbG repressors, such as Myb and Klf1 were unaffected. Expression changes were not observed for other genes involved in HbG regulation, including KDM1A (LSD1), NR2C1 (TR2) and NR2C2 (TR4), NR2F2 (COUP-TFII) and nuclear factor Y subunits, and proteins known to associate with Bcl11a12 (data not shown).

HDACs 4-9 = assay: in vitro HDAC inhibition assay, HDACs 4-9; type: biochemical; settings: concentrations as high as 20 μM; FIG. 20
[2] = test system: human bone marrow-derived CD34+ cells; assay: viability of expanded CD34+ cells; type: cell-based; settings: 2 days of treatment
Description: This possibility was first tested by measuring the viability of expanded human bone marrow-derived CD34+ cells, composed of primitive and more differentiated hematopoietic progenitors of multiple lineages, following 2 days of treatment with compound.

[3] = blood cell counts in rats; type: in vivo; settings: rat
Procedure: I. A. Rats were dosed once daily by oral gavage for 6 consecutive days at 0 mg/kg, 10 mg/kg, or 30 mg/kg per dose (See FIG. 25A). Dosing days are indicated by a down arrow (FIG. 25A). Peripheral blood was drawn on the indicated days and analyzed for drug level in plasma (PK), complete blood counts (CBC), or isolation of total ribonucleic acid (RNA). […] For each individual rat, white blood cell counts were expressed relative to their predose level (time=day 0). Points are the average of n=4 animals with error bars showing the standard deviation.

HDAC3 = HDAC3 (Homo sapiens, UniProt O15379); assay: in vitro biochemical HDAC inhibition assay
[4] = blood cell counts in monkeys; type: in vivo, cynomolgus monkey; settings: monkey
Procedure: (§1) B. Cynomolgus monkey were dosed once daily by oral gavage for 5 consecutive days at 0 mg/kg, 25 mg/kg, or 75 mg/kg per dose (FIG. 25B). Sampling as described in ‘A’.
For each individual monkey, white blood cell counts were expressed relative to their predose level (time=day 0). Points are the average of n=3 animals with error bars showing the standard deviation.

[5] = pharmacokinetics of Compound 001 in cynomolgus monkeys; type: in vivo; settings: cynomolgus monkey, plasma, read-out: minimum drug exposure for the entire dosing period
Procedure: as §1
C. […] Points are the average of replicate animals, error bars are the standard deviation of replicate animals (FIG. 25C).

[6] = test system: K562 erythroleukemia cells; assay: Gata2 mRNA in K562 cells; type: cell-based; settings: 3 days, FIG. 3
Gata2 regulatory regions = assay: ChIP-QPCR of histone acetylation at Gata2 regulatory regions; type: cell-based
Description: In chromatin state maps these histone modifications, especially H3K9ac and H3K27ac, have been associated with active regulatory regions, such as enhancers and promoters of actively transcribed genes. The differentiation profile was unaffected by compound treatment and similar to that of cells used in experiments above (FIG. 23B).

[7] = test system: Human CD34+ bone marrow cells; assay: erythroid maturation in CS1 by CD71/GlyA flow cytometry; type: cell-based; settings: 1 μM
Description: To investigate the effects of HDAC inhibition on later stages of erythroid maturation, differentiation in CS1 was followed by flow cytometry using fluorescent antibodies against the transferrin receptor (CD71) and glycophorin A (GlyA). […] The majority of vehicle control cells continued to differentiate, becoming CD71^posGlyA^pos by day 8. […] CD71^posGlyA^mid cells are equivalent to proerythroblasts (ProE), while CD71^posGlyA^pos cells include the more differentiated basophilic and polychromatic erythroblasts.

[8] = Compound 001 1 μM vs vehicle, day 5

Sequence of HDAC3 (O15379 whole entry): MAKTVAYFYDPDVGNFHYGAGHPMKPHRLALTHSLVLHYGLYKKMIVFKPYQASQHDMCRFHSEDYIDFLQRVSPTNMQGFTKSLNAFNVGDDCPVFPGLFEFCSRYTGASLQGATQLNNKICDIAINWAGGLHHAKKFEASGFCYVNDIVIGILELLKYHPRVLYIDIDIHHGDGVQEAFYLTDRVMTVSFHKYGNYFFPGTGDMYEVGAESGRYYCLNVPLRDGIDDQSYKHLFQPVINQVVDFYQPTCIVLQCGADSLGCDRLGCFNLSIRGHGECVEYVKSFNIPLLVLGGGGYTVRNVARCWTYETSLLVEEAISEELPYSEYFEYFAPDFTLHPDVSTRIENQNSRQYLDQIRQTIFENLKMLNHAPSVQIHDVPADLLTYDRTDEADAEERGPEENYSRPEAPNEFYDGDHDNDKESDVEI
Sequence of HDAC3 (Q9Y618 395-489 partner limits assumed): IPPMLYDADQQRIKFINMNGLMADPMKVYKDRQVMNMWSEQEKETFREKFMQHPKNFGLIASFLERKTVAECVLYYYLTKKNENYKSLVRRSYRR

For `Nc1ccc(-c2cccs2)cc1NC(=O)c1ccc2nc(N3CCNCC3)ccc2c1` [Compound 001, N-(2-amino-5-(thiophen-2-yl)phenyl)-2-(piperazin-1-yl)quinoline-6-carboxamide], the HbG (sickle donor cells) was “induced HbG”, the “candidate gene expression ratio Bcl11a” value [1, 8] was 0.8 and the “candidate gene expression ratio Gata1” value [1, 8] was 1.0. The “candidate gene expression ratio Gata2” value [1, 8] was 2.8, the “candidate gene expression ratio KLF1” value [1, 8] was 0.9 and the “candidate gene expression ratio Myb” value [1, 8] was 1.1. The “candidate gene expression ratio Sox6” value [1, 8] was 0.4, the Bcl11a down-regulation ([1]; GeneChip, FIG. 1A) was 1.3 fold and the Gata2 up-regulation ([1]; GeneChip, FIG. 1A) was 2.8 fold. For the same compound, the Klf1 expression change ([1]; GeneChip, FIG. 1A) was “unaffected”, the Myb expression change ([1]; GeneChip, FIG. 1A) was “unaffected” and the Sox6 down-regulation ([1]; GeneChip, FIG. 1A) was 2.5 fold. For the same compound, the “inhibition of HDACs 4-9” value (HDACs 4-9) was “negligible inhibitory activity; also recorded: no inhibition”, the “fold less cytotoxic than Entinostat” value [2] was 10 fold and the IC50 ([2]; Homo sapiens, 48 h, FIG. 19A) was 45000 nM. For the same compound, the RBC or platelets [3] was “no detected affect”, the “time of peak white blood cell suppression after the last dose” value [3] was 1 days and the “time to recovery of white blood cell counts to baseline after the last dose” value [3] was 5 days. The white blood cells ([3]; 10 or 30 mg/kg for 6 days) was “reversible suppression”, the “selectivity over HDAC3” value (HDAC3) was “approximately 100 fold” and the IC50 (HDAC3; Table 2, read-out: IC50 HDAC3) was 114 nM. For the same compound, the IC50 (HDAC3; pre-incubation time of 24 hours, FIG. 9A, 17B, read-out: IC50 against HDAC3) was 1300 nM, the RBC or platelets [4] was “no detected affect” and the “time of peak white blood cell suppression after the last dose” value [4] was 1 days. The “time to recovery of white blood cell counts to baseline after the last dose” value [4] was 5 days, the white blood cells ([4]; 25 or 75 mg/kg for 5 days) was “reversible suppression” and the concentration at 5 days ([5]; high dose (75 mg/kg once daily oral gavage, 5 days)) was at least 5000 nM. For the same compound, the concentration at 5 days ([5]; low dose (25 mg/kg once daily oral gavage, 5 days)) was at least 1000 nM, the “Gata2 mRNA” value [6] was “dose dependent response” and the “increase in histone H3K9, H2BK5, and H3K27 acetylation” value (Gata2 regulatory regions; +9.5 kb and −3.9 kb regions) was 3 fold. For the same compound, the “increase in histone H3K9, H2BK5, and H3K27 acetylation” value (Gata2 regulatory regions; −1.8 kb and −2.8 kb regulatory regions) was 6 fold, the “erythroid differentiation (CD71/GlyA)” value ([7]; by day 8) was “block differentiation of proerythroblasts to basophilic erythroblasts” and the “erythroid differentiation (CD71/GlyA)” value ([7]; first 5 days) was “differentiated normally”.
